Series [1] addresses Cyclin-dependent kinase 2 (Homo sapiens, UniProt P24941). The series can be described thus: Binding affinity to human Avi-tagged CDK2 expressed in Escherichia coli BL21 DE3 assessed as dissociation constant by Surface plasmon resonance analysis. (In general: SPR reads the build-up and loss of mass on a sensor chip optically.)
For series [2], the target named is Epidermal growth factor receptor (Mus musculus, UniProt Q01279). The series can be described thus: Displacement of probe N-(4-(4-(3-((4-((3-chloro-4-fluorophenyl)amino)-7-methoxyquinazolin-6-yl)oxy)propyl)piperazin-1-yl)-4-oxobutyl)-3-(5,5-difluoro-7,9-dimethyl-5H-5l4,6l4-dipyrrolo[1,2-c:2',1'-f][1,3,2]diazaborinin-3-yl)propenamide from C-terminal His-tagged wild type mouse EGFR incubated for 30 mins by probe displacement based TR-FRET assay. A general note: TR-FRET usually uses a lanthanide donor and a delayed reading to cut background.

A short description of series [3]: Chromatographic hydrophobicity index, log D of the compound by HPLC analysis. The class given is physicochemical.
The nature of series [4]: Aqueous solubility of compound at pH 7.4. The format is physicochemical.

≈ marks a conversion by molar mass, not a printed value. Some results are limits rather than exact numbers.

Sequence of Epidermal growth factor receptor (Q01279 whole entry): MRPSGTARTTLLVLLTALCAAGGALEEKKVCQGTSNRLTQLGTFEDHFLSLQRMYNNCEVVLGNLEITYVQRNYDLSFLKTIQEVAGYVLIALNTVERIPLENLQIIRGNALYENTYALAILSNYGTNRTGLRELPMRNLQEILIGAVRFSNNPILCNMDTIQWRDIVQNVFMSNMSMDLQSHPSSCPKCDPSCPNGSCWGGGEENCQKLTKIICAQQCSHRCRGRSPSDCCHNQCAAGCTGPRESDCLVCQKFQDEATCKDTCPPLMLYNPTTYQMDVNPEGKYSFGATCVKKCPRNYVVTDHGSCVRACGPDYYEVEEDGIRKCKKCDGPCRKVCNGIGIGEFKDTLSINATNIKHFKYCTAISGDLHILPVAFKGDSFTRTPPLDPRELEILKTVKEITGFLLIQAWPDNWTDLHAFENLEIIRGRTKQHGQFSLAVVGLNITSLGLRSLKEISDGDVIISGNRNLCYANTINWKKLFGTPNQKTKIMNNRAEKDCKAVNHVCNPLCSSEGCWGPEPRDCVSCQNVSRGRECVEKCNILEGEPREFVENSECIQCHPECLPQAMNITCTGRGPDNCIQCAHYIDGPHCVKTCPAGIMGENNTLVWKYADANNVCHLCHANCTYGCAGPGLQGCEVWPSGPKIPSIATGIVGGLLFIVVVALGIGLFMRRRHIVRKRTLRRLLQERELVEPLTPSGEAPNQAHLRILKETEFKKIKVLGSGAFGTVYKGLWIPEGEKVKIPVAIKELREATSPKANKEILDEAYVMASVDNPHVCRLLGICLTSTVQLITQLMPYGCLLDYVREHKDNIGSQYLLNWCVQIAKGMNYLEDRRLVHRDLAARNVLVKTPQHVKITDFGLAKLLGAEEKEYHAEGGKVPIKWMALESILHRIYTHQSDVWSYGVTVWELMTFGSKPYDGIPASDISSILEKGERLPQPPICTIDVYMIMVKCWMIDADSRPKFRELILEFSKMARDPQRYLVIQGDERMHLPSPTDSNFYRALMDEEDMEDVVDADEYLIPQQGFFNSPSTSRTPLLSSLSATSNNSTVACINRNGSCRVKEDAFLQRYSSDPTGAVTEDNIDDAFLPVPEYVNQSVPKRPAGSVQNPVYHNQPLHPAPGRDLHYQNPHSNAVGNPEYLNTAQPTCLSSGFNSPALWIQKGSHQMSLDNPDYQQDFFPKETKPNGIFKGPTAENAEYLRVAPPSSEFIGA

On to `O=C(Nc1ccccc1)NC1CCCC1`, for which the Kd in series [1] was 1 mM. In series [2], this compound showed an IC50 of 0.2 mM. Moreover, in series [3], the chromatographic logD worked out at 2.4. In addition, the concentration in solution in series [4] (solubility) was 85 µM (≈ 17.4 µg/mL).

Consider `CN(C(=O)Nc1ccccc1)C1CCCC1`, for which, in series [1], the Kd was 2 mM. For the same compound, the IC50 in series [2] was > 1 mM. For the same compound, in series [3], the chromatographic logD is 2.8. Further, in series [4], the solubility was found to be 98 µM (≈ 21.4 µg/mL).

Turning to `O=C(Nc1ccccn1)NC1CCCC1`, the Kd in series [1] is 0.398 mM. For the same compound, in series [2], the IC50 is 0.398 mM. In series [3], the chromatographic logD was 2.4. Further, the solubility in series [4] turned out to be 93 µM (≈ 19.1 µg/mL).

Regarding `CN(C(=O)N(C)C1CCCC1)c1ccccc1`, in series [1], the Kd was 3.16 mM. Moreover, the half-maximal inhibitory concentration (IC50) in series [2] is 0.126 mM. Moreover, the chromatographic logD in series [3] is 3.6. Moreover, the concentration in solution in series [4] (solubility) came to 77 µM (≈ 17.9 µg/mL).

In the case of `CN(C(=O)N(C)C1CCCC1)c1ccccn1`, the Kd in series [1] was 15.8 mM. For the same compound, the IC50 in series [2] was > 1 mM. In addition, in series [3], the chromatographic logD was found to be 2.2. In series [4], this compound registered a solubility of 114 µM (≈ 26.6 µg/mL).

Take `CN(C(=O)NC1CCCC1)c1ccccn1`: the Kd in series [1] was 1.58 mM. The IC50 in series [2] is > 1 mM. In series [3], the chromatographic logD came to 3. In series [4], this compound came in with a solubility of 87 µM (≈ 19.1 µg/mL).

With `CN(C(=O)Nc1ccccn1)C1CCCC1`, in series [1], the Kd was 2.51 mM. Further, in series [2], the IC50 is 0.794 mM. The chromatographic logD in series [3] turned out to be 2.1. This compound gave a solubility in series [4] of 102 µM (≈ 22.4 µg/mL).

Regarding `CN(C(=O)NC1CCCC1)c1ccccc1`, in series [1], the Kd was 7.94 mM. The compound also showed an IC50 in series [2] of 0.1 mM. For the same compound, in series [3], the chromatographic logD stood at 2.7. The compound also returned a solubility in series [4] of 104 µM (≈ 22.7 µg/mL).

Broadly, the Kd is the equilibrium constant for the complex coming apart. As usually defined, the IC50 is the concentration needed to halve the response being measured. Broadly, the chromatographic logD is a lipophilicity value derived from retention on a column. A lower chromatographic logD goes with a more hydrophilic compound. As usually defined, the solubility is the dissolved amount per volume that the medium holds. A higher solubility goes with a readily soluble substance.
